Source: US9802982B2, “Peptide and uses thereof” (Tunghai University, priority 2014, dated 2017)
≈ marks a conversion by molar mass, not a printed value. Read-outs that look alike come from different tables or passages of the source. Where a SMILES comes first, the peptide text is derived from it. Where no end group is shown, it is not given here. [ ]: non-standard residue; d: D form. NMeW = CN[C@@H](Cc1c[nH]c2ccccc12)C(=O)O; NMeR = CN[C@@H](CCCNC(=N)N)C(=O)O

Tests used:
Type in all cases: cell-based
human red blood cells = assay: Hemolysis assay
Method: 1-3 mL human blood was centrifuged at 3000 rpm, 4° C. for 10 minutes. The supernatant was discarded. The remaining was washed with cold phosphate buffer saline (PBS) and centrifuged at 3000 rpm, 4° C. for 1 minute. The supernatant was discarded. The remaining red blood cells were washed and diluted as 2% red blood cell solution with cold PBS.
A mixture of 100 μL red blood cell solution and 100 μL PBS was served as a negative control. A mixture of 100 μL red blood cells solution and 100 μL 0.2% Triton X-100 was served as a positive control. The solution of peptide 1, peptide 2, peptide 3, peptide 5, and peptide 6 were respectively mixed with red blood cell solution with the same volume and incubated at 37° C. for 1 hour. After incubation, the mixture was centrifuged at 3000 rpm, 4° C. for 10 minutes. Each of the supernatant was collected to measure the absorbance at wavelength of 405 nm by an ELISA plate reader. The hemolysis of each peptide was calculated according to the following equation, wherein Abs represents the absorbance. [(Abspeptide−AbsPBS)/(AbsTriton X-100−AbsPBS)]×100

[1] = system: Staphylococcus aureus (ATCC25923)
Method: (§1) Three bacteria strains, Escherichia coli (ATCC 25922), Staphylococcus aureus (ATCC25923), and Pseudomon asaeruginosa (ATCC27853) were brought from the Food Industry Research and Development Institute, Hsinchu, Taiwan.
(§2) Each of the strain (0.1-0.2 mL) was inoculated on an agar gel medium (Merck, Whitehouse, Station, N.J., USA) and isolated into single colony by streak plate method. Each of the strain was spread evenly by a sterile L-shaped glass rod and incubated overnight. After that, the single colony on each agar gel medium was transferred to liquid LB medium (Merck, Whitehouse, Station, N.J., USA) and incubated at 37° C. in an incubator.
(§3) Each bacteria strain from example 6 was incubated to its mid-log phase at 37° C. in 2 mL Lysogeny broth (LB) in an incubator, wherein the mid-log phase of Escherichia coli is 4 hours, the mid-log phase of Staphylococcus aureus is 6 hours, and the mid-log phase of Pseudomonas aeruginosa is 8 hours. According to 0.5 McFarland Standard, the number of bacteria in a broth is 1×10^8 CFU/mL when the OD595 is 0.08-0.09. […] And then, the number of bacteria in each broth was diluted from 1×10^8 CFU/mL to […]. Finally, each broth has bacterial number of 5×10^5 CFU/mL in Mueller Hinton broth (MHB).
(§4) 199 μL of each of the foresaid diluted broth was respectively placed into a 96 well plate, and 1 μL of each peptide from example 5 was added into each well to incubate at 37° C. in an incubator for 16 hours. The OD595 of the coculture of each broth and each peptide was measured by a microplate spectrophotometer. In addition, the bacterial broth without the peptide served as positive control (PC), and the free broth MHB culture medium served as negative control (NC). The minimum inhibitory concentration (MIC90) of each peptide against each bacteria was measured according to the following equation, wherein A is the absorbance. MIC90≦[(Apeptide−ANC)(APC−ANC)]
(§5) In addition, to measure the minimum bactericidal concentration (MBC), 1 μL of each broth cocultured with the peptide was sprayed on a flat plate medium at 37° C. in an incubator for 24 hours. If the incubation result has no bacteria, the concentration of the reagent is MBC.

[2] = system: Pseudomonas aeruginosa (ATCC27853)
Method: as §1, §2, §3, §4, §5

[3] = system: Escherichia coli (ATCC 25922)
Method: as §1, §2, §3, §4, §5

[4] = system: Staphylococcus aureus (ATCC25923); remark: listed apart in the source
Method: as §1, §2, §3, §4

[5] = system: Pseudomonas aeruginosa (ATCC27853); remark: listed apart in the source
Method: as §1, §2, §3, §4

[6] = system: Escherichia coli (ATCC 25922); remark: listed apart in the source
Method: as §1, §2, §3, §4

[7] = coculture plated on flat plate medium, 37° C., 24 hours, no bacteria
[8] = 5×10^5 CFU/mL in MHB, 37° C., 16 hours, OD595

Compound	Hemolysis (%) (human red blood cells; red cells of human, 1 h)	Minimum bactericidal concentration (MBC99.9) Staphylococcus aureus ([1]; ATCC25923, 24 h) [µM]	Minimum bactericidal concentration (MBC99.9) Pseudomonas aeruginosa ([2]; ATCC27853, 24 h) [µM]	Minimum bactericidal concentration (MBC99.9) Escherichia coli ([3]; ATCC 25922, 24 h) [µM]	Minimum inhibitory concentration (MIC90) Staphylococcus aureus ([4]; ATCC25923, 16 h) [µM]	Minimum inhibitory concentration (MIC90) Pseudomonas aeruginosa ([5]; ATCC27853, 16 h) [µM]	Minimum inhibitory concentration (MIC90) Escherichia coli ([6]; ATCC 25922, 16 h) [µM]	other results
KWLRWVRRRWW-NH2 [peptide 3, KWLRWVRRRWW]	3.4	5	20	10	2.5	5	2.5	Hemolysis, comparison in words (human red blood cells): the lowest
CC(C)C[C@H](NC(=O)[C@H](Cc1c[nH]c2ccccc12)NC(=O)[C@@H](N)CCCCN)C(=O)N[C@@H](CCCNC(=N)N)C(=O)N[C@@H](CCCNC(=N)N)C(=O)N[C@H](C(=O)N(C)[C@@H](Cc1c[nH]c2ccccc12)C(=O)N[C@@H](CCCNC(=N)N)C(=O)N[C@@H](Cc1c[nH]c2ccccc12)C(=O)N[C@@H](Cc1c[nH]c2ccccc12)C(=O)N[C@@H](CCCNC(=N)N)C(N)=O)C(C)C [peptide 1, KWLRRVMeWRWWR] (H-KWLRRV[NMeW]RWWR-NH2)	20.1	40 (≈ 69.6 µg/mL)	10 (≈ 17.4 µg/mL)	20 (≈ 34.8 µg/mL)	5 (≈ 8.71 µg/mL)	10 (≈ 17.4 µg/mL)	5 (≈ 8.71 µg/mL)	Hemolysis, comparison in words (human red blood cells): significantly lower than the peptide 5
KWLRRVWRWWR-NH2 [peptide 6, KWLRRVWRWWR]	70.7	10	5	5	5	5	5	
CC(C)C[C@H](NC(=O)[C@H](Cc1c[nH]c2ccccc12)NC(=O)[C@@H](N)CCCCN)C(=O)N[C@@H](CCCNC(=N)N)C(=O)N(C)[C@@H](CCCNC(=N)N)C(=O)N[C@H](C(=O)N[C@@H](Cc1c[nH]c2ccccc12)C(=O)N[C@@H](CCCNC(=N)N)C(=O)N[C@@H](Cc1c[nH]c2ccccc12)C(=O)N[C@@H](Cc1c[nH]c2ccccc12)C(=O)N[C@@H](CCCNC(=N)N)C(N)=O)C(C)C [peptide 5, KWLRMeRVWRWWR] (H-KWLR[NMeR]VWRWWR-NH2)	44.9							
Triton X-100 [Positive control, reference compound]								Hemolysis (%) (human red blood cells): 100%
CC(C)C[C@H](NC(=O)[C@H](CCCNC(=N)N)NC(=O)[C@@H](N)CCCCN)C(=O)N[C@@H](CCCNC(=N)N)C(=O)N[C@@H](CCCNC(=N)N)C(=O)N[C@H](C(=O)N(C)[C@@H](Cc1c[nH]c2ccccc12)C(=O)N[C@@H](CCCNC(=N)N)C(=O)N[C@@H](Cc1c[nH]c2ccccc12)C(=O)N[C@@H](Cc1c[nH]c2ccccc12)C(=O)N[C@@H](CCCNC(=N)N)C(N)=O)C(C)C [peptide 4, KRLRRVMeWRWWR] (H-KRLRRV[NMeW]RWWR-NH2; N-terminus assumed)		10 (≈ 17.1 µg/mL)	20 (≈ 34.2 µg/mL)	20 (≈ 34.2 µg/mL)	10 (≈ 17.1 µg/mL)	20 (≈ 34.2 µg/mL)	20 (≈ 34.2 µg/mL)	
KWLRRPWRRWR-NH2 [peptide 2, KWLRRPWRRWR]								Hemolysis, comparison in words (human red blood cells; comparison among the peptides of Table 4): the lowest; Minimum bactericidal concentration (MBC99.9) Staphylococcus aureus [1, 7]: 5 µM; Minimum bactericidal concentration (MBC99.9) Pseudomonas aeruginosa [2, 7]: 20 µM; Minimum bactericidal concentration (MBC99.9) Escherichia coli [3, 7]: 10 µM; Minimum inhibitory concentration (MIC90) Staphylococcus aureus [4, 8]: 2.5 µM; Minimum inhibitory concentration (MIC90) Pseudomonas aeruginosa [5, 8]: 5 µM; Minimum inhibitory concentration (MIC90) Escherichia coli [6, 8]: 2.5 µM
